Tests used:
[1] = 101.3 kPa, Liquid, Capillary tube (Ostwald / Ubbelohde) method
[2] = mn = molality of the nth substance listed, in mol/kg; conditions: 101.3 kPa, Liquid; for viscosity: Capillary tube (Ostwald / Ubbelohde) method; for mass density: Vibrating tube method

O [water]
[1]
Conditions	viscosity [mPa·s]
288.15 K	1.138
298.15 K	0.89
308.15 K	0.719
318.15 K	0.596

[Cl-].[Cl-].[Mg+2] [magnesium chloride] + O
[2]
Conditions	mass density, m1 = 0.09999 [kg/m3]	mass density, m1 = 0.25 [kg/m3]	mass density, m1 = 0.5 [kg/m3]	mass density, m1 = 0.7499 [kg/m3]	mass density, m1 = 0.9999 [kg/m3]	viscosity, m1 = 0.0999 [mPa·s]	viscosity, m1 = 0.25 [mPa·s]	viscosity, m1 = 0.5 [mPa·s]	viscosity, m1 = 0.7499 [mPa·s]	viscosity, m1 = 0.9999 [mPa·s]
288.15 K	1006.87	1017.79	1034.95	1050.84	1065.46	1.21	1.25	1.355	1.445	1.534
298.15 K	1004.61	1015.32	1032.22	1048.21	1062.64	0.934	0.981	1.072	1.147	1.214
308.15 K	1001.62	1012.53	1029.55	1045.26	1059.4	0.751	0.794	0.862	0.934	1.01
318.15 K	997.848	1008.92	1026.01	1041.4	1055.25	0.624	0.659	0.715	0.762	0.814

— the NIST ThermoML archive (doi:10.1021/acs.jced.7b00520)
